Columns and labels:
[1] = relative permittivity at various frequencies (dimensionless); conditions: 101.3 kPa, Liquid, Frequency=2 MHz, Parallel plate capacitor
[2] = for surface tension liquid-gas: Drop volume; for viscosity / speed of sound / mass density: 101.33 kPa; for viscosity / speed of sound / mass density / vapor or sublimation pressure: Liquid; for viscosity: Capillary tube (Ostwald / Ubbelohde) method; for speed of sound: Sing-around technique in a fixed-path interferometer; for mass density: Vibrating tube method; for vapor or sublimation pressure: Ebulliometric method (Recirculating still)
[3] = refractive index (Na D-line) (dimensionless); conditions: 101.33 kPa, Liquid, Standard Abbe refractometry

CCOC(=O)C(C)O (racemic) [DL-ethyl lactate]
Conditions	mass density, [2] [kg/m3]	refractive index, [3]	relative permittivity, [1]	speed of sound, [2] [m/s]	surface tension liquid-gas, [2] [mN/m]	vapor or sublimation pressure, [2] [kPa]	viscosity, [2] [mPa·s]
278.15 K	1050.05	–	17.791	1354.5	31.47	–	4.479
280.65 K	1047.37	–	17.538	1345.2	31.21	–	4.091
283.15 K	1044.68	1.41751	17.219	1335.7	30.94	–	3.75
285.65 K	1041.96	1.41644	16.961	1326.2	30.79	–	3.451
288.15 K	1039.26	1.41528	16.736	1316.8	30.43	–	3.184
290.65 K	1036.54	1.41414	16.496	1307.5	30.18	–	2.947
293.15 K	1033.82	1.41301	16.166	1298.3	29.95	–	2.735
295.65 K	1031.09	1.41188	15.961	1289	29.67	–	2.546
298.15 K	1028.37	1.41074	15.711	1279.7	29.49	–	2.375
300.65 K	1025.63	1.40959	15.448	1270.5	29.23	–	2.221
303.15 K	1022.89	1.40843	15.18	1261.2	28.88	0.436	2.081
305.65 K	1020.15	1.40729	14.917	1251.9	28.64	–	1.955
308.15 K	1017.4	1.40615	14.639	1242.6	28.42	0.603	1.838
310.65 K	1014.64	1.40501	14.373	1233.3	28.12	–	1.733
313.15 K	1011.88	1.40381	14.107	1224	27.84	0.829	1.636
315.65 K	1009.12	1.40267	13.843	1214.7	27.46	–	1.547
318.15 K	1006.34	1.40152	13.573	1205.4	27.19	1.142	1.466
320.65 K	1003.57	1.40036	13.298	1196.1	26.92	–	1.391
323.15 K	1000.78	1.39918	13.045	1186.8	26.65	1.536	1.321
325.65 K	997.99	1.39798	12.786	1177.6	26.29	–	1.255
328.15 K	995.193	1.39684	12.538	1168.4	26.08	2.015	1.196
330.65 K	992.389	1.3956	12.286	1159.1	25.92	–	1.14
333.15 K	989.579	1.39448	12.044	1149.9	25.48	2.717	1.087
335.65 K	986.763	1.3933	11.787	1140.7	25.32	–	1.037
338.15 K	983.942	1.39215	11.495	1131.6	25.05	3.523	0.9907
343.15 K	–	–	–	–	–	4.591	–
348.15 K	–	–	–	–	–	5.851	–
353.15 K	–	–	–	–	–	7.323	–
358.15 K	–	–	–	–	–	9.29	–
363.15 K	–	–	–	–	–	11.49	–
368.15 K	–	–	–	–	–	14.19	–
373.15 K	–	–	–	–	–	17.37	–
378.15 K	–	–	–	–	–	21.11	–
383.15 K	–	–	–	–	–	25.51	–
388.15 K	–	–	–	–	–	30.62	–
393.15 K	–	–	–	–	–	36.24	–
398.15 K	–	–	–	–	–	42.71	–
403.15 K	–	–	–	–	–	50.4	–
408.15 K	–	–	–	–	–	59.11	–
413.15 K	–	–	–	–	–	69.13	–
418.15 K	–	–	–	–	–	80.2	–
423.15 K	–	–	–	–	–	92.51	–

Source: the NIST ThermoML archive (doi:10.1016/j.tca.2013.11.010)
